The results in this text go back to patent US20100022476A1, “PYRAZOLYLAMINO SUBSTITUTED QUINAZOLES FOR THE TREATMENT OF CANCER” (ASTRAZENECA AB, priority 2004, published 2010).

Data set [1] can be described thus: Plasma protein binding assay (equilibrium dialysis). The data set is classed as in vitro ADME. The settings on record: human plasma, 20 μM compound, dialysed 18 hours at 37° C. The protocol: (e) Plasma Protein Binding Assay
Plasma protein binding was measured using the equilibrium dialysis technique. Compound was added to human plasma to a concentration of 20 μM and dialysed with isotonic phosphate/sodium chloride buffer for 18 hours at 37° C. The plasma and buffer solutions on each side of the dialysis membrane were analysed using a generic LCUVMS (Waters 2795 HPLC with Micromass ZQ mass spectrometer) and the percentage of free compound in 100% plasma was determined.

Data set [2] relates to SW620 human colon tumour cells. In words: In vitro cell phenotype and substrate phosphorylation assay (phosphohistone H3). The data set is classed as cell-based. The settings on record: SW-620, 24 hours of treatment, read-out: EC50 for inhibition of phosphohistone H3 levels. As for the experimental part: (c) In Vitro Cell Phenotype and Substrate Phosphorylation Assay
This assay is used to determine the cellular effects of compounds on SW620 human colon tumour cells in vitro. Compounds typically cause inhibition of levels of phosphohistone H3 and an increase in the nuclear area of the cells.
10^4 SW620 cells per well were plated in 100 μl DMEM media (containing 10% FCS and 1% glutamine) (DMEM is Dulbecco's Modified Eagle's Medium (Sigma D6546)) in costar 96 well plates and left overnight at 37° C. and 5% CO2 to adhere. The cells were then dosed with compound diluted in media (50 μl is added to each well to give 0.00015μ-1 μM concentrations of compound) and after 24 hours of treatment with compound, the cells were fixed.
The cells were first examined using a light microscope and any cellular changes in morphology were noted. 100 μl of 3.7% formaldehyde was then added to each well, and the plate was left for at least 30 minutes at room temperature. Decanting and tapping the plate on a paper towel removed the fixative and plates were then washed once in PBS (Dulbecco's Phosphate Buffered Saline (Sigma D8537)) using an automated plate washer. […]
The next day, the antibody was tipped off and the plates were washed twice with PBS. […] 100 μl PBS was added to each well and the plates were sealed ready to analyse. […]

For data set [3], the system named is drug-resistant MCF7-ADR human breast tumour cells. In words: In vitro drug-resistant cell phenotype and substrate phosphorylation assay (phosphohistone H3). It counts as cell-based. The settings on record: NCI/ADR-RES, MCF7-ADR cells overexpressing drug-resistant proteins, read-out: EC50 for inhibition of phosphohistone H3 levels. The protocol:
(d) In Vitro Drug-Resistant Cell Phenotype and Substrate Phosphorylation Assay.
This assay is used to determine the cellular effects of compounds on drug-resistant MCF7-ADR human breast tumour cells in vitro.
Compounds typically cause inhibition of levels of phosphohistoneH3 and an increase in the nuclear area of treated cells.
0.8×10^4 MCF7-ADR cells per well were plated in 100 μl DMEM media (containing 10% FCS (foetal calf serum) and 1% glutamine) in costar 96 well plates and left overnight at 37° C. and 5% CO2 to adhere.
All other procedures are identical to those for the above assay using SW620 cells.

For `COc1cc(OCCN(C)CCO)c2c(Nc3cc(CC(=O)Nc4cccc(F)c4F)[nH]n3)ncnc2c1` [Compound 9, N-(2,3-difluorophenyl)-2-{3-[(5-{2-[(2-hydroxyethyl)(methyl)amino]ethoxy}-7-methoxyquinazolin-4-yl)amino]-1H-pyrazol-5-yl}acetamide], the “percentage of free compound in 100% plasma” value in data set [1] came out at 3.9%. Moreover, the half-maximal effective concentration (EC50) in data set [2] came out at 7.6 nM; in data set [3] it was 400 nM.
